Data published in PubChem BioAssay AID330 (DTP/NCI, 2004).
Values joined by “and” are separate entries in the source; they are usually repeats but may differ in a detail not shown here. Identical values can stand only once. Toxic doses and inconclusive results are not listed. Numbered stars: 1 amine (or outer) side, 2 acyl side, 3 side chain; on linkers, the order of the positions; unused ones are H or OH. Bridge positions count the residues as written; N and C are the ends. Square brackets hold non-standard residues; d marks the D form. Peptide text beside a SMILES is read from it. I, II: the chains in the order shown. Actinocin(9to1) = Cc1c2oc3c(C)ccc(C(=O)[*:1])c3nc-2c(C(=O)[*:2])c(N)c1=O; NMeV = CN[CH](C(=O)O)C(C)C; Pip = O=C(O)[CH]1CCCCN1; Sar = CNCC(=O)O

System: P388 leukemia ip, CD2F1 mice, survival T/C
Assay: NCI In Vivo Anticancer Drug Screen. Data for tumor model P388 Leukemia (intraperitoneal) in CD2F1 (CDF1) mice
Settings: endpoint: median survival time, higher = longer survival
Outline: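 Mice carrying the transplanted tumor received test compound or vehicle. Survival was recorded in each group, and the value is the treated-group measurement divided by that of the vehicle-treated control group.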

[1] = dose: 50.0 mg/kg/injection, schedule: Q01DX005 (ip), vehicle: saline with Tween-80
[2] = dose: 100.0 mg/kg/injection, schedule: Q01DX005 (ip), vehicle: saline with Tween-80
[3] = dose: 200.0 mg/kg/injection, schedule: Q01DX005 (ip), vehicle: saline with Tween-80
[4] = dose: 50.0 mg/kg/injection, schedule: Q01DX009 (ip), vehicle: saline with Tween-80
[5] = dose: 100.0 mg/kg/injection, schedule: Q01DX009 (ip), vehicle: saline with Tween-80
[6] = dose: 50.0 mg/kg/injection, schedule: Q01DX009 (ip), vehicle: saline
[7] = dose: 100.0 mg/kg/injection, schedule: Q01DX009 (ip), vehicle: saline
[8] = dose: 50.0 mg/kg/injection, schedule: Q01DX005 (ip), vehicle: Klucel (hydroxypropylcellulose) (HPC)
[9] = dose: 100.0 mg/kg/injection, schedule: Q01DX005 (ip), vehicle: Klucel (hydroxypropylcellulose) (HPC)
[10] = dose: 6.25 mg/kg/injection, schedule: Q01DX009 (ip), vehicle: saline with Tween-80
[11] = dose: 12.5 mg/kg/injection, schedule: Q01DX009 (ip), vehicle: saline with Tween-80

For `CCCCCC[N+]1([O-])CC[N+]([O-])(CCCCCC)CC1` (stereo not given), the T/C (dose: 15.0 mg/kg/injection, schedule: Q01DX005 (ip), vehicle: saline) was 101 % of control, the T/C (dose: 30.0 mg/kg/injection, schedule: Q01DX005 (ip), vehicle: saline) was 102 % of control and the T/C (dose: 60.0 mg/kg/injection, schedule: Q01DX005 (ip), vehicle: saline) was 102 % of control and 103 % of control.
`COc1nc2c(c(=O)n1C)C(=O)CN2C1OC(COC(C)=O)C(OC(C)=O)C(OC(C)=O)C1OC(C)=O` (stereo not given) was tested, and the T/C [1] was 103 % of control, the T/C [2] was 108 % of control and the T/C [3] was 103 % of control.
`N.O=S(=O)(O)O.[Al]` was tested, and the T/C [4] was 100 % of control and the T/C [5] was 100 % of control.
For `Cc1c(C2Nc3ccccc3C2C)[nH]c2ccccc12` (stereo not given), the T/C [1] was 104 % of control, the T/C [2] was 100 % of control and the T/C [3] was 103 % of control.
`C=CCCc1ccccc1/C=N/NS(=O)(=O)c1ccc(C)cc1` was tested, and the T/C (dose: 100.0 mg/kg/injection, schedule: Q01DX001 (ip), vehicle: saline with Tween-80) was 97 % of control, the T/C (dose: 200.0 mg/kg/injection, schedule: Q01DX001 (ip), vehicle: saline with Tween-80) was 88 % of control and the T/C (dose: 400.0 mg/kg/injection, schedule: Q01DX001 (ip), vehicle: saline with Tween-80) was 101 % of control.
`CC[C@@]1(O)C[C@H](OC2CC(N(C)C)C(OC3CC(O)C(O[C@@H]4O[C@@H](C)C(=O)C=C4N)C(C)O3)C(C)O2)c2c(cc3c(c2O)C(=O)c2c(O)ccc(O)c2C3=O)[C@H]1C(=O)OC` (stereo not given in full) was tested, and the T/C (dose: 0.19 mg/kg/injection, schedule: Q01DX009 (ip), vehicle: saline) was 150 % of control, the T/C (dose: 0.38 mg/kg/injection, schedule: Q01DX009 (ip), vehicle: saline with Tween-80) was 161 % of control and the T/C (dose: 0.75 mg/kg/injection, schedule: Q01DX009 (ip), vehicle: saline with Tween-80) was 175 % of control. For the same compound, the T/C (dose: 0.75 mg/kg/injection, schedule: Q01DX009 (ip), vehicle: saline) was 163 % of control, the T/C (dose: 1.5 mg/kg/injection, schedule: Q01DX009 (ip), vehicle: saline with Tween-80) was 89 % of control and the T/C (dose: 1.5 mg/kg/injection, schedule: Q01DX009 (ip), vehicle: saline) was 182 % of control. The T/C (dose: 3.0 mg/kg/injection, schedule: Q01DX009 (ip), vehicle: saline) was 94 % of control, the T/C (dose: 1.0 micrograms/kg/injection, schedule: Q01DX005 (ip), vehicle: Klucel (hydroxypropylcellulose) (HPC)) was 102 % of control and the T/C (dose: 2.0 micrograms/kg/injection, schedule: Q01DX005 (ip), vehicle: Klucel (hydroxypropylcellulose) (HPC)) was 106 % of control. For the same compound, the T/C (dose: 4.0 micrograms/kg/injection, schedule: Q01DX005 (ip), vehicle: Klucel (hydroxypropylcellulose) (HPC)) was 102 % of control and the T/C (dose: 8.0 micrograms/kg/injection, schedule: Q01DX005 (ip), vehicle: Klucel (hydroxypropylcellulose) (HPC)) was 102 % of control.
For `O=C(O)c1ccc(OCc2ccccc2)cc1`, the T/C [6] was 93 % of control and the T/C [7] was 93 % of control.
For `O=C(Nc1ccc(C2=NCCN2)cc1)c1ccc(C(=O)Nc2ccc(C3=NCCN3)cc2)cc1`, the T/C (dose: 75.0 mg/kg/injection, schedule: Q01DX010 (ip), vehicle: saline) was 118 % of control and the T/C (dose: 112.0 mg/kg/injection, schedule: Q01DX010 (ip), vehicle: saline) was 100 % of control.
For `O=C(CO)N(CCO)CCO`, the T/C [6] was 98 % of control, the T/C [7] was 95 % of control and the T/C (dose: 200.0 mg/kg/injection, schedule: Q01DX009 (ip), vehicle: saline) was 96 % of control.
With `Cc1oc(-c2ccccc2F)nc1C(N)=O` the T/C [4] was 96 % of control, the T/C [5] was 95 % of control and the T/C (dose: 200.0 mg/kg/injection, schedule: Q01DX009 (ip), vehicle: saline with Tween-80) was 91 % of control.
`CC(C)(C)N=C(c1ccccc1)N1CCCCC1` was tested, and the T/C [4] was 100 % of control and the T/C [5] was 90 % of control.
`[CH3][Sn]([CH3])([n]1cc(CC(=O)O)c2ccccc21)[n]1cc(CC(=O)O)c2ccccc21` was tested, and the T/C [8] was 116 % of control and the T/C [9] was 108 % of control.
In the case of `O=C1CS(=O)(=O)C(c2ccccc2Cl)N1N1C(=O)CS(=O)(=O)C1c1ccccc1Cl` (stereo not given), the T/C [1] is reported as 96 % of control, the T/C [2] is reported as 90 % of control and the T/C [3] is reported as 89 % of control.
With `Cc1c2oc3c(C)ccc(C(=O)NC4C(=O)NC(C(C)C)C(=O)N5CCCCC5C(=O)N(C)CC(=O)N(C)C(C(C)C)C(=O)OC4C)c3nc-2c(C(=O)NC2C(=O)NC(C(C)C)C(=O)N3CCCCC3C(=O)N(C)CC(=O)N(C)C(C(C)C)C(=O)OC2C)c(N)c1=O` (stereo not given) (I: TV[Pip][Sar][NMeV] / II: TV[Pip][Sar][NMeV]; ester I:1-I:C, II:1-II:C; linker I:N-II:N via Actinocin(9to1); configuration not given here) the T/C (dose: 0.39 mg/kg/injection, schedule: Q01DX009 (ip), vehicle: saline with Tween-80) was 110 % of control, the T/C (dose: 0.78 mg/kg/injection, schedule: Q01DX009 (ip), vehicle: saline with Tween-80) was 119 % of control and the T/C (dose: 1.56 mg/kg/injection, schedule: Q01DX009 (ip), vehicle: saline with Tween-80) was 180 % of control. For the same compound, the T/C (dose: 3.12 mg/kg/injection, schedule: Q01DX009 (ip), vehicle: saline with Tween-80) was 190 % of control, the T/C [10] was 165 % of control and 209 % of control and the T/C [11] was 195 % of control.
In the case of `COc1ccc(N2C(=O)C3C4C=CC(C3C2=O)N(C)C4=O)cc1` (stereo not given), the T/C (dose: 100.0 mg/kg/injection, schedule: Q04DX002 (ip), vehicle: saline with Tween-80) is reported as 101 % of control, the T/C (dose: 200.0 mg/kg/injection, schedule: Q04DX002 (ip), vehicle: saline with Tween-80) is reported as 98 % of control and the T/C (dose: 400.0 mg/kg/injection, schedule: Q04DX002 (ip), vehicle: saline with Tween-80) is reported as 87 % of control.
`N#CC1C(=O)NC(=S)NC1c1ccco1` (stereo not given) was tested, and the T/C (dose: 50.0 mg/kg/injection, schedule: Q01DX009 (ip), vehicle: Klucel (hydroxypropylcellulose) (HPC)) was 100 % of control, the T/C (dose: 100.0 mg/kg/injection, schedule: Q01DX009 (ip), vehicle: Klucel (hydroxypropylcellulose) (HPC)) was 95 % of control and the T/C (dose: 200.0 mg/kg/injection, schedule: Q01DX009 (ip), vehicle: Klucel (hydroxypropylcellulose) (HPC)) was 92 % of control.
`C/C=C(\C)c1cc(=O)c2c(C)cc3c(c2o1)C(=O)c1c(O)c(C2CC(C)(N(C)C)C(OC(C)=O)C(C)O2)cc(C2CC(N(C)C)C(O)C(C)O2)c1C3=O` (stereo not given) was tested, and the T/C (dose: 1.25 mg/kg/injection, schedule: Q01DX009 (ip), vehicle: saline) was 100 % of control, the T/C (dose: 2.5 mg/kg/injection, schedule: Q01DX009 (ip), vehicle: saline) was 117 % of control and the T/C (dose: 5.0 mg/kg/injection, schedule: Q01DX009 (ip), vehicle: saline) was 89 % of control.
For `C1CCC(CCCCc2nn[nH]n2)CC1`, the T/C [1] was 102 % of control and the T/C [2] was 100 % of control.
In the case of `CC(C)c1ccc(C(=O)CCCCl)cc1`, the T/C (dose: 100.0 mg/kg/injection, schedule: Q04DX003 (ip), vehicle: saline with Tween-80) is reported as 109 % of control, the T/C (dose: 200.0 mg/kg/injection, schedule: Q04DX003 (ip), vehicle: saline with Tween-80) is reported as 100 % of control and the T/C (dose: 400.0 mg/kg/injection, schedule: Q04DX003 (ip), vehicle: saline with Tween-80) is reported as 104 % of control.
With `CC(=O)OCn1cc2c3c(cccc31)C1CC(C)CN(C)C1C2` (stereo not given) the T/C (dose: 12.5 mg/kg/injection, schedule: Q01DX005 (ip), vehicle: saline with Tween-80) was 98 % of control, the T/C (dose: 25.0 mg/kg/injection, schedule: Q01DX005 (ip), vehicle: saline with Tween-80) was 106 % of control and the T/C [1] was 100 % of control.
With `O=C(O)C(O)C(O)C(=O)O.O=C(O)C(O)C(O)C(=O)O.[O]=[V].[O]=[V]` (stereo not given) the T/C (dose: 12.5 mg/kg/injection, schedule: Q01DX009 (ip), vehicle: saline) was 110 % of control, the T/C (dose: 15.0 mg/kg/injection, schedule: Q01DX009 (ip), vehicle: saline) was 102 % of control and the T/C (dose: 25.0 mg/kg/injection, schedule: Q01DX009 (ip), vehicle: saline) was 110 % of control. For the same compound, the T/C (dose: 25.0 mg/kg/injection, schedule: Q04DX003 (ip), vehicle: saline sonified) was 100 % of control, the T/C (dose: 30.0 mg/kg/injection, schedule: Q01DX009 (ip), vehicle: saline) was 106 % of control and the T/C (dose: 50.0 mg/kg/injection, schedule: Q04DX003 (ip), vehicle: saline sonified) was 104 % of control.
In the case of `C=Cc1c(C)c2cc3[nH]c(cc4nc(cc5nc(cc1[nH]2)C(C)=C5CCC(=O)OC)C(CCC(=O)OC)=C4C)c(C)c3C#N`, the T/C [8] is reported as 107 % of control, the T/C [9] is reported as 109 % of control and the T/C (dose: 200.0 mg/kg/injection, schedule: Q01DX005 (ip), vehicle: Klucel (hydroxypropylcellulose) (HPC)) is reported as 111 % of control.
For `O=c1nc(Oc2ccccc2)nc2ncccn12`, the T/C [10] was 101 % of control, the T/C [11] was 112 % of control and the T/C [4] was 114 % of control.
`O=[N+]([O-])c1ccc(OCC#CCOc2ccc([N+](=O)[O-])c(C(F)(F)F)c2)cc1C(F)(F)F` was tested, and the T/C (dose: 50.0 mg/kg/injection, schedule: Q01DX009 (ip), vehicle: other) was 105 % of control, the T/C (dose: 100.0 mg/kg/injection, schedule: Q01DX009 (ip), vehicle: other) was 104 % of control and the T/C (dose: 200.0 mg/kg/injection, schedule: Q01DX009 (ip), vehicle: other) was 102 % of control.
